In publication PMC5983305, “Bioactive Pyridone Alkaloids from a Deep-Sea-Derived Fungus Arthrinium sp. UJNMF0008” (Marine Drugs, 2018):

Columns and labels:
[1] = test system: Mycobacterium smegmatis ATCC 607; assay: Antimicrobial assay, liquid growth inhibition in 96-well microplates; format: cell-based; settings: Mycolicibacterium smegmatis; Mycobacterium smegmatis ATCC607; OD 600 nm after 12 h at 37 °C; read-out: Antibacterial activity IC50, MS
Protocol: (§1) The antimicrobial activity was assayed against the Gram-positive bacterial strains Mycobacterium smegmatis ATCC 607 and Staphylococcus aureus ATCC 25923, Gram-negative Escherichia coli ATCC 8739 and Pseudomonas aeruginosa ATCC 9027 and yeast Candida albicans ATCC10231 by liquid growth inhibition in 96-well microplates. Briefly, precultures of the tested microorganisms were made by inoculating 10 mL of medium (LB medium for bacteria and YM medium for fungus) and incubated for 24 h at 37 °C for bacteria or 48 h at 28 °C for fungus. Then, the cell density was adjusted to 10^4−10^5 cfu mL^−1 by the corresponding broth. An aliquot of 200 μL of the microbial suspension was distributed in each well containing 2-fold serial dilution of the tested compounds. The plate was incubated at 37 °C for 12 h for the bacteria or at 28 °C for 48 h for the fungus, and the optical density of each well was measured at 600 nm spectrophotometrically. IC50 values were defined as the concentration of a compound resulting in a 50% decrease in the number of microbial cultures compared to the blank control. The experiment was run in three replicates.

[2] = test system: Staphylococcus aureus ATCC 25923; assay: as above; format: cell-based; settings: Staphylococcus aureus ATCC25923; OD 600 nm after 12 h at 37 °C; read-out: Antibacterial activity IC50, SA
Protocol: as §1

| Compound | IC50 [1] | IC50 [2] |
| --- | --- | --- |
| CC1CCC2C(C=CC(C)C2C(=O)c2c3c(c[nH]c2=O)C2(O)CCC(O)C(O)C2O3)C1 (stereo not drawn) [Compound 3, Arthpyrone F] | 11.4 µM | 8.97 µM |
| C[C@@H]1CC[C@H]2[C@H](C(=O)c3c(=O)[nH]cc4c5c(oc34)[C@H](O)[C@H](O)CC5)[C@H](C)C=C[C@@H]2C1 [Compound 4, Arthpyrone G] | > 50 µM | 42.8 µM |
| CO[C@H]1[C@H](O)CC[C@](O)(c2c[nH]c(=O)c(C(=O)[C@H]3[C@@H]4CC[C@@H](C)C[C@H]4C=C[C@H]3C)c2O)[C@@H]1O [Compound 5, Arthpyrone H] | 19.4 µM | 8.37 µM |
| CO[C@]1(c2c[nH]c(=O)c(C(=O)[C@H]3[C@@H]4CC[C@@H](C)C[C@H]4C=C[C@H]3C)c2O)CC[C@@H](O)[C@H](O)[C@H]1O [Compound 6, Arthpyrone I] | 35.3 µM | 14.1 µM |

Now those with a lower IC50 [1], led by results:

| IC50 [1] | IC50 [2] | Compound |
| --- | --- | --- |
| < 1 µM | < 1 µM | CO/N=C(\C(=O)N[C@@H]1C(=O)N2C(C(=O)O)=C(CSc3nc(=O)c(=O)[nH]n3C)CS[C@H]12)c1csc(N)n1 [Ceftriaxone sodium, reference compound] |
| 2.2 µM | 1.66 µM | CC1CCC2C(C=CC(C)C2C(=O)c2c(O)c(C3(O)CCC(O)C4OC43)c[nH]c2=O)C1 (stereo not drawn) [Compound 9, apiosporamide] |
